According to patent publication US9353091B2 (priority 2009, dated 2016):

Tests used:
[1] = test system: genotype 1b-Con1 subgenomic replicon cell line; experiment: HCV Polymerase Replicon Assay (genotype 1b-Con1, luciferase reporter); format: cell-based; settings: Hepatitis C virus, 72 h, 1b-Con1 replicon, three days
[2] = target: T1, HCV polymerase 1B (Δ21 NS5B) (Hepatitis C virus genotype 1b, UniProt P26663); experiment: HCV Polymerase Inhibition Assay (1b); format: biochemical
T1 construct: 20 to 50 nM Δ21 NS5B
T1 sequence (P26663 2420-2989, stated change not applied): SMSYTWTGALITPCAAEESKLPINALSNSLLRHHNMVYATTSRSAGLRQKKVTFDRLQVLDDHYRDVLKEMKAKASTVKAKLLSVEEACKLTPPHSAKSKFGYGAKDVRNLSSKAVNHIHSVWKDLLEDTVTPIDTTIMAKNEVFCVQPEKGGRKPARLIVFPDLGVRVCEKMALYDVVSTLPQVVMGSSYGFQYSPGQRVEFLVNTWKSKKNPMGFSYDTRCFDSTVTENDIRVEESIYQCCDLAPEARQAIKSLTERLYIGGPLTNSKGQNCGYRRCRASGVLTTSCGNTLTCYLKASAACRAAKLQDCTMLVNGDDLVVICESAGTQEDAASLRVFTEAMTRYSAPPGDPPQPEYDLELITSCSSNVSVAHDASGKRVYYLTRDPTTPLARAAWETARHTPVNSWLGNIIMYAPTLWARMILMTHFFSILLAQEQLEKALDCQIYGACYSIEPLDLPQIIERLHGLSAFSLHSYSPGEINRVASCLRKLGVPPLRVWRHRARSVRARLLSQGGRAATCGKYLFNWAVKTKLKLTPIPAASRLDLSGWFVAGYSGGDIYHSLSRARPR
Description: (§1) Reaction volume was 50 μL. The reaction was terminated by the addition of 1 volume of 4 mM spermine in 10 mM Tris-Cl pH 8.0, 1 mM EDTA. After incubation for at least 15 minutes at room temperature, the precipitated RNA was captured by filtering through a GF/B filter (Millipore) in a 96 well format. The filter plate was washed three times with 200 μL, each of 2 mM spermine, 10 mM Tris-Cl pH 8.0, 1 mM EDTA, and 2 times with ethanol. After air-drying, 30 μL, of Microscint 20 scintillation cocktail (Packard) was added to each well, and the retained cpm were determined by scintillation counting. […] Retained cpm were plotted vs. inhibitor concentration and fit to equation 1 using non-linear regression (ref. 1) to obtain the IC50 values: Retained cpm=A[sqrt{(IC50+It−Et)^2+4*IC50*Et}−(IC50+It−Et)]
(§2) Ref. Morrison, J. F. and S. R. Stone. 1985. Approaches to the study and analysis of the inhibition of enzymes by slow- and tight-binding inhibitors. Comments Mol. Cell. Biophys. 2: 347-368.
(§3) The sequence of the template RNA used was: 5′-[…] […] […] […] […] […] […] […] […] […] […] […] […] […] […] […] […]-3′ (SEQ ID NO: 1)

[3] = test system: genotype 1a-H77 subgenomic replicon cell line; experiment: HCV Polymerase Replicon Assay (genotype 1a-H77, luciferase reporter); format: cell-based; settings: Hepatitis C virus, 72 h, 1a-H77 replicon, three days
[4] = target: T2, HCV polymerase 1A (Δ21 NS5B) (Hepatitis C virus genotype 1a, UniProt P27958); experiment: HCV Polymerase Inhibition Assay (1a); format: biochemical
T2 construct: 20 to 50 nM Δ21 NS5B
T2 sequence (P27958 2421-2990, stated change not applied): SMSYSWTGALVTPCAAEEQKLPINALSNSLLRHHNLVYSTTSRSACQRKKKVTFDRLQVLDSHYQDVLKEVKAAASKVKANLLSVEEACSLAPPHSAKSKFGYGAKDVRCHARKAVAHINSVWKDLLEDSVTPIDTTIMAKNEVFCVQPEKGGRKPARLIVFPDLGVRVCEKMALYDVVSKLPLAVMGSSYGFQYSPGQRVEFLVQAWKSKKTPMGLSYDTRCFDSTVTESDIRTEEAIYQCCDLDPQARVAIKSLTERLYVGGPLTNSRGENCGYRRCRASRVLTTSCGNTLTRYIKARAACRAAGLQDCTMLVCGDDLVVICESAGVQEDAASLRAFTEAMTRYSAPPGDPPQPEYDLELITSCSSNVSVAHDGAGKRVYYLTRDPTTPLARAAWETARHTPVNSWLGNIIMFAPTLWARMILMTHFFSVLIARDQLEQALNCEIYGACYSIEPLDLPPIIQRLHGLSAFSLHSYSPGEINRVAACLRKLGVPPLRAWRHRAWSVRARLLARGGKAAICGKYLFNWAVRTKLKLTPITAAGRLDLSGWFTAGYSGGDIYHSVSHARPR
Description: as §1, §2, §3

Row | Compound | EC50 [1] [nM] | IC50 [2] [nM] | EC50 [3] [nM] | IC50 [4] [nM]
1 | COc1c(-c2ccc3c(c2)CC=C3CNS(C)(=O)=O)cc(-c2cn(C)c(=O)[nH]c2=O)cc1C(C)(C)C [compound 6, N-((6-(3-tert-butyl-2-methoxy-5-(1-methyl-2,4-dioxo-1,2,3,4-tetrahydropyrimidin-5-yl)phenyl)-1H-inden-3-yl)methyl)methanesulfonamide] | ≤ 10 | 10 to 100 | 100 to 1000 | < 10
2 | COc1c(-c2ccc3cc(NS(C)(=O)=O)ccc3c2)cc(-c2cn(C)c(=O)[nH]c2=O)cc1C(C)(C)C [compound 7, N-(6-(3-tert-butyl-2-methoxy-5-(1-methyl-2,4-dioxo-1,2,3,4-tetrahydropyrimidin-5-yl)phenyl)naphthalen-2-yl)methanesulfonamide] | ≤ 10 | 10 to 100 | 10 to 100 | < 10
3 | COc1c(-c2ccc3cc(NS(C)(=O)=O)ccc3c2)cc(-c2cn(C)c(=O)n(C)c2=O)cc1C(C)(C)C [compound 8, N-(6-(3-tert-butyl-5-(1,3-dimethyl-2,4-dioxo-1,2,3,4-tetrahydropyrimidin-5-yl)-2-methoxyphenyl)naphthalen-2-yl)methanesulfonamide] | 10 to 100 | 100 to 1000 | 100 to 1000 | 100 to 1000
4 | COc1c(-c2ccc3cc(NS(C)(=O)=O)ccc3c2)cc(-c2ccc[nH]c2=O)cc1C(C)(C)C [compound 9, N-(6-(3-tert-butyl-2-methoxy-5-(2-oxo-1,2-dihydropyridin-3-yl)phenyl)naphthalen-2-yl)methanesulfonamide] | ≤ 10 | 10 to 100 | ≤ 10 | < 10
5 | COc1c(-c2ccc3cc(NS(C)(=O)=O)ccc3c2)cc(-c2ccc(=O)[nH]c2)cc1C(C)(C)C [compound 10, N-(6-(3-tert-butyl-2-methoxy-5-(6-oxo-1,6-dihydropyridin-3-yl)phenyl)naphthalen-2-yl)methanesulfonamide] | > 1000 | > 1000 | 100 to 1000 | 100 to 1000
6 | COc1c(-c2ccc3c(c2)CCC3=O)cc(-c2c[nH]c(=O)[nH]c2=O)cc1C(C)(C)C [compound 12, 5-(3-tert-butyl-4-methoxy-5-(1-oxo-2,3-dihydro-1H-inden-5-yl)phenyl)pyrimidine-2,4(1H,3H)-dione] | 100 to 1000 | 10 to 100 | 100 to 1000 | 10 to 100
7 | COc1c(-c2ccc3c(c2)CCC3O)cc(-c2c[nH]c(=O)[nH]c2=O)cc1C(C)(C)C (stereo not shown) [compound 13, 5-(3-tert-butyl-5-(1-hydroxy-2,3-dihydro-1H-inden-5-yl)-4-methoxyphenyl)pyrimidine-2,4(1H,3H)-dione] | > 1000 | 100 to 1000 | > 1000 | 100 to 1000
8 | COc1c(-c2ccc3cc(NS(C)(=O)=O)ccc3c2)cc(NC(N)=O)cc1C(C)(C)C [compound 14, N-(6-(3-tert-butyl-2-methoxy-5-ureidophenyl)naphthalen-2-yl)methanesulfonamide] | 10 to 100 | 10 to 100 | 100 to 1000 | < 10
9 | COc1c(-c2ccc3cc(NS(C)(=O)=O)ccc3c2)cc(N2C(=O)CN=C2O)cc1C(C)(C)C [compound 15, N-(6-(3-tert-butyl-5-(2-hydroxy-5-oxo-4,5-dihydro-1H-imidazol-1-yl)-2-methoxyphenyl)naphthalen-2-yl)methanesulfonamide] | 10 to 100 | 10 to 100 | 100 to 1000 | < 10
10 | COc1c(-c2ccc3cc(NS(C)(=O)=O)ccc3c2)cc(N2CC(=O)NC2=O)cc1C(C)(C)C [compound 16, N-(6-(3-tert-butyl-5-(2,4-dioxoimidazolidin-1-yl)-2-methoxyphenyl)naphthalen-2-yl)methanesulfonamide] | 100 to 1000 | 10 to 100 | 100 to 1000 | 10 to 100
11 | CCOC(=O)CCNC(=O)Nc1cc(-c2ccc3cc(NS(C)(=O)=O)ccc3c2)c(OC)c(C(C)(C)C)c1 [compound 21, ethyl 3-(3-(3-tert-butyl-4-methoxy-5-(6-(methylsulfonamido)naphthalen-2-yl)phenyl)ureido)propanoate] | 100 to 1000 | > 1000 | 100 to 1000 | 100 to 1000
12 | CCNC(=O)Nc1cc(-c2ccc3cc(NS(C)(=O)=O)ccc3c2)c(OC)c(C(C)(C)C)c1 [compound 22, N-(6-(3-tert-butyl-5-(3-ethylureido)-2-methoxyphenyl)naphthalen-2-yl)methanesulfonamide] | 100 to 1000 | 100 to 1000 | 100 to 1000 | 100 to 1000
13 | COc1c(-c2ccc3cc(NS(C)(=O)=O)ccc3c2)cc(NC(=O)CCNC(=O)OC(C)(C)C)cc1C(C)(C)C [compound 23, tert-butyl 3-(3-tert-butyl-4-methoxy-5-(6-(methylsulfonamido)naphthalen-2-yl)phenylamino)-3-oxopropylcarbamate] | > 1000 | > 1000 | > 1000 | 100 to 1000
14 | COc1c(-c2ccc3cc(NS(C)(=O)=O)ccc3c2)cc(N2CCOC2=O)cc1C(C)(C)C [compound 25, N-(6-(3-tert-butyl-2-methoxy-5-(2-oxooxazolidin-3-yl)phenyl)naphthalen-2-yl)methanesulfonamide] | > 1000 | 100 to 1000 | > 1000 | 100 to 1000
15 | COc1c(-c2ccc3cc(NS(C)(=O)=O)ccc3c2)cc(N2CCCNC2=O)cc1C(C)(C)C [compound 26, N-(6-(3-tert-butyl-2-methoxy-5-(2-oxotetrahydropyrimidin-1(2H)-yl)phenyl)naphthalen-2-yl)methanesulfonamide] | ≤ 10 | 10 to 100 | 10 to 100 | 10 to 100
16 | COc1c(-c2ccc3cc(NS(C)(=O)=O)ccc3c2)cc(N2CCNC2=O)cc1C(C)(C)C [compound 27, N-(6-(3-tert-butyl-2-methoxy-5-(2-oxoimidazolidin-1-yl)phenyl)naphthalen-2-yl)methanesulfonamide] | 10 to 100 | 10 to 100 | 100 to 1000 | 10 to 100
17 | COc1c(-c2ccc3cc(NS(C)(=O)=O)ccc3c2)cc(-c2c[nH]c(=O)[nH]c2=O)cc1C(C)(C)C [compound 28, N-(6-(3-tert-butyl-5-(2,4-dioxo-1,2,3,4-tetrahydropyrimidin-5-yl)-2-methoxyphenyl)naphthalen-2-yl)methanesulfonamide] | ≤ 10 | 10 to 100 | ≤ 10 | < 10
18 | COc1c(-c2ccc3cc(NS(C)(=O)=O)ccc3c2)cc(N2CCCC2=O)cc1C(C)(C)C [compound 29, N-(6-(3-tert-butyl-2-methoxy-5-(2-oxopyrrolidin-1-yl)phenyl)naphthalen-2-yl)methanesulfonamide] | 10 to 100 | 10 to 100 | 100 to 1000 | 10 to 100
19 | COc1c(-c2ccc3cc(NS(C)(=O)=O)ccc3c2)cc(-n2ccccc2=O)cc1C(C)(C)C [compound 30, N-(6-(3-tert-butyl-2-methoxy-5-(2-oxopyridin-1(2H)-yl)phenyl)naphthalen-2-yl)methanesulfonamide] | 10 to 100 | 10 to 100 | 100 to 1000 | 10 to 100
